Experimental data reported in article PMC8280112, “Substrate reduction therapy for Krabbe disease and metachromatic leukodystrophy using a novel ceramide galactosyltransferase inhibitor” (Scientific Reports, 2021).
Like-named read-outs stand apart in the source and are kept apart here.

Assays:
[1] = test system: wild-type mice; assay: Low dose treatment of wild-type mice PND3 to PND70: vacuolation; assay type: in vivo, mouse; settings: PND3 to PND70, 0.15 mg/kg
[2] = target: T1, Glucosylceramide synthase (GCS) (Canis lupus familiaris, UniProt A0A8I3MXG6); assay: Glucosylceramide synthase assay; assay type: biochemical; settings: MDCK cell lysate
T1 construct: endogenous in cells; host or cells: MDCK cell lysate
T1 sequence (A0A8I3MXG6 1-394): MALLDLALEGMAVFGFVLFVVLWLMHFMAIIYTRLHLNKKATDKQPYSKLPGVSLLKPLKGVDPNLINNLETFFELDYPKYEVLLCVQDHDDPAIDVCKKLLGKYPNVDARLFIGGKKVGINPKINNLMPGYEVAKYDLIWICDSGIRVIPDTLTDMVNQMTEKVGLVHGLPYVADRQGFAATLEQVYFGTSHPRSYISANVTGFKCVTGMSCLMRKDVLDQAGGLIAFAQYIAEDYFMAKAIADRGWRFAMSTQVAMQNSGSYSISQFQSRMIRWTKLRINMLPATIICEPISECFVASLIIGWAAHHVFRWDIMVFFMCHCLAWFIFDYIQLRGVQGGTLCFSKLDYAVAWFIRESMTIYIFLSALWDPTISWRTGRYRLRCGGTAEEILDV
Procedure: Modified from Larsen et al.[46]. Briefly, 60 μg of MDCK cell lysate was incubated with […] in 100 mM Tris buffer (pH 7.5), 10 mM MgCl2, 1 mM dithiothreitol, 1 mM EGTA, 2 mM NAD, 100 μM UDP-glucose, 10 μM C6-NBD-Ceramide (Matreya), 35 μM DOPC, and 5 μM sulfatide (Sigma) at 37 °C for 1 h. The reaction was stopped with equal volume of acetonitrile and 50 μL was added to 100 μL of acetonitrile containing 100 ng/mL tolbutamide IS and centrifuged. Next, 70 μL of supernatant was mixed with 140 μL H2O before LC-MS analysis. NBD-Glucosylceramide quantification was performed on a Shimadzu ultra-fast liquid chromatography system (Shimadzu) coupled with an API 4000 triple quadrupole mass spectrometer in ESI positive mode (Applied Biosystems) and a Xbridge BEH130 CI 8, 100 mm × 4.6 mm i.d, 3.5 μm column (Waters). The mobile phase consisted of water and acetonitrile supplemented with 0.1% formic acid (v/v).

[3] = target: T2, CB1 receptor (Homo sapiens, UniProt P21554); assay: CB1R activity (Eurofin Cerep); assay type: cell-based
T2 construct: purchased Eurofin Cerep ITEM G012
T2 sequence (P21554 whole entry): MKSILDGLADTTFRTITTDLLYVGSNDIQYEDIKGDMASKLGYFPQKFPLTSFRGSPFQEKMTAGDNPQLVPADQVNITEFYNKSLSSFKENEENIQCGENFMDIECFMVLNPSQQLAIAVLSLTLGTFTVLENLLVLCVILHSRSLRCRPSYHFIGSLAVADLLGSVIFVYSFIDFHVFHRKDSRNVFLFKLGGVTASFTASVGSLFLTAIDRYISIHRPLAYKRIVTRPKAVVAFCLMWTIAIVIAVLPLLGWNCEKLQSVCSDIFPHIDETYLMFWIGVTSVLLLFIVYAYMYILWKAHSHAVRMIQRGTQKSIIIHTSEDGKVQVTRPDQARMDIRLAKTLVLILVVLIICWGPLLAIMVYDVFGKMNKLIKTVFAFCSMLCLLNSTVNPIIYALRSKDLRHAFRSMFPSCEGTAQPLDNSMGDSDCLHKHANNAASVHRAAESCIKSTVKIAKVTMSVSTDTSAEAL
Procedure: CB1R activity was evaluated at Eurofin Cerep, Le Bois l'Evêque, France ITEM […].

[4] = target: T3, Recombinant human glucosylceramidase (GBA1) (Homo sapiens, UniProt P04062); assay: Beta-glucocerebrosidase assay; assay type: biochemical
T3 construct: purchased R&D Systems
T3 sequence (P04062 40-536): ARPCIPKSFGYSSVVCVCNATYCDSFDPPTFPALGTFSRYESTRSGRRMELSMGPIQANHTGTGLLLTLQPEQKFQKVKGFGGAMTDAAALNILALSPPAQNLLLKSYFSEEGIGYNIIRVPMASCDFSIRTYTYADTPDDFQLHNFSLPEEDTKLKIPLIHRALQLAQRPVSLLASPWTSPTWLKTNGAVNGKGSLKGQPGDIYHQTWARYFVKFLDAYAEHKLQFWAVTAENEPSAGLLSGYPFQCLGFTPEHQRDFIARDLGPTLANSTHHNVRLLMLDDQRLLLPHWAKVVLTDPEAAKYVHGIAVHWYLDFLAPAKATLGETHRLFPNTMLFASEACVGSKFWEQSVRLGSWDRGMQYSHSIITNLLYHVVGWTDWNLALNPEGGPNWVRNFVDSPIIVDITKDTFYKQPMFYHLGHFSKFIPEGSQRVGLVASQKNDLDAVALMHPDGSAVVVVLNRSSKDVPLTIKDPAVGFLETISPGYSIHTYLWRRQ

C[C@H]1N(c2ccc(Br)cc2)C(=O)N(c2ccc(Br)cc2)C1(O)c1cccc(OC(F)(F)F)c1 (stereo partly shown) [S202]
vacuolation in brain, spine and sciatic nerve [1]: vacuolation was observed in a similar pattern, but was much less severe | IC50 [2]: > 50000 nM | potency as a CB1 inverse agonist, change through optimization of S221 ([3]; S202 relative to S221): reduced tenfold | IC50 ([3]; antagonist mode, read-out: CB1R antagonist IC50): 2900 nM | IC50 ([3]; inverse agonist mode, read-out: CB1R inverse agonist IC50): 2100 nM | IC50 ([3]; read-out: CB1 receptor IC50): 3000 nM | IC50 [4]: > 50000 nM
